Data as given in article PMC12397098, “3-Monothiopomalidomide, a new immunomodulatory imide drug (IMiD), blunts inflammation and mitigates ischemic stroke in the rat” (GeroScience, 2025).
Read-outs that look alike come from different tables or passages of the source.

Tests used:
[1] = Sprague Dawley, rat, microsomes, 1 h, 1 μM
[2] = human, microsomes, 1 μM
[3] = in vitro; details: Sprague Dawley, rat, microsomes
[4] = Liver microsomal stability, rat
[5] = Liver microsomal stability, human; details: 1 μM
[6] = system: LPS-induced cytokines (TNF-α, IL-6, IL-10, IL-13) in plasma and cerebral cortex; experiment: Systemic and brain LPS anti-inflammatory study in rats; assay type: in vivo; details: rat, LPS 1 mg/kg, 4 h
Procedure: They were administered, via the intraperitoneal (I.P.) route, nano-formulated 3-MP at a dose of 13.25 or 26.5 mg/kg (equimolar to a clinically translatable dose of 12.5 and 25 mg/kg thalidomide), vehicle or pomalidomide (25 mg/kg). One hour later, animals were administered either LPS (1 mg/kg, E.Coli 055:B5, Sigma Aldrich, in normal saline, 0.5 mg/mL) or an alike volume of saline (without LPS) via the I.P. route. The LPS dose was selected from prior pilot studies to provide a substantial but sub-maximal rise in plasma proinflammatory cytokine levels, in line with our prior research. The selected 3-MP and pomalidomide doses were chosen as they are equimolar to, or are less than, doses of thalidomide and analogues that have been verified to be well tolerated in our previous studies and are of translational relevance to humans. Four hours after LPS administration, the animals were euthanized, and blood and brain tissues were collected and placed on wet ice. Plasma was quickly separated from blood by centrifugation (10,000 × g, 5 min, 4 °C) and together with the brain samples (cerebral cortex) was stored at − 80 °C. At a later time, cerebral cortex samples were sonicated in a TRIS-based lysis buffer (Mesoscale Discovery) with 3 × protease/phosphatase inhibitors (Halt™ Protease and Phosphatase Inhibitor Cocktail, Thermo Fisher Scientific, Waltham, MA, USA). Samples were then centrifuged (10,000 × g, 5 min, 4 °C), supernatant separated, and protein concentrations were quantified by bicinchoninic acid assay (BCA, Thermo Fisher Scientific). Rat plasma and cerebral cortex samples were analyzed by multi-proinflammatory cytokine ELISA (V-PLEX Proinflammatory Panel 2 Rat Kit, Mesoscale Discovery) following the manufacturer’s protocol to quantify TNF-α, IL-6, IL-10, and IL-13 levels.

[7] = system: LPS-induced cytokines (TNF-α, IL-6, IL-10, IL-13) in plasma and cerebral cortex; experiment: as above; assay type: in vivo; details: rat, 1 h pre-treatment, 3-MP 13.23 and 26.47 mg/kg I.P., pomalidomide 25 mg/kg I.P., LPS 1 mg/kg I.P., 4 h
[8] = parameters: method as in earlier work; details: rat; cited from earlier work
[9] = parameters: method as in earlier work; details: nonhuman primate (cynomolgus monkey); cited from earlier work
[10] = cited from earlier work
[11] = Pharmacokinetic evaluations of 3,6’-DP in rats; assay type: in vivo, rat; details: authors' recent pharmacokinetic evaluations, no data shown
[12] = parameters: method as in PMID 32589144; details: cited from earlier work
[13] = system: IL-1β, TNF-α and IL-10 levels in animals with MCAo; parameters: method as in PMID 35631536; details: cited from earlier work
[14] = Sprague Dawley, rat, microsomes

## O=C(O)Cc1ccccc1Nc1c(Cl)cccc1Cl [Diclofenac, diclofenac, reference compound]
[1]
  Remaining (NCF = 60 min): 107.9%
  Remaining (T = 60 min): 2.2%
[2]
  Clint(liver): 292.3 mL/min/kg
  Clint(mic): 324.8 µL/min/mg
[2]; 1 h
  Remaining (NCF = 60 min): 101.0%
  Remaining (T = 60 min): 0.0%
[3]
  CLint scaled at 1 μM: 227 mL/min/kg
  microsomal CLint at 1 μM: 126 µL/min/mg

## C[C@]12CC[C@H]3[C@@H](CCC4=CC(=O)CC[C@@]43C)[C@@H]1CC[C@@H]2O [Testosterone, testosterone]
[4]; [14]
  CLint scaled at 1 μM: 3910 mL/min/kg
  microsomal CLint at 1 μM: 2170 µL/min/mg
[4]; rat liver microsomes with NADPH, 1 μM, 60 min
  Remaining (T = 60 min): 0.1%
[4]; rat liver microsomes, no co-factor (no NADPH), 1 μM, 60 min
  Remaining (NCF = 60 min): 103.7%
[5]; human liver microsomes with NADPH, 60 min
  Remaining (T = 60 min): 13.2%
[5]; human liver microsomes with NADPH, scaled from Clint(mic)
  Clint(liver): 59.0 mL/min/kg
[5]; human liver microsomes, no co-factor (no NADPH), 60 min
  Remaining (NCF = 60 min): 97.1%

## Nc1cccc2c1C(=O)N(C1CCC(=O)NC1=O)C2=O (stereo not shown) [pomalidomide]
[6]; 3-MP both doses and pomalidomide I.P.
  LPS-mediated elevations in brain IL-13: maintained
[6]; 3-MP low dose 13.25 mg/kg I.P., pomalidomide 25 mg/kg I.P.
  decline in IL-6 brain levels: failed to achieve statistical significance
[6]; high- or low-dose 3-MP or pomalidomide I.P.
  IL-10 elevation induced by LPS in plasma or brain: not lessened
[7]
  LPS-induced cytokine changes in plasma and cerebral cortex: significantly mitigated
[8]
  bioavailability: 13%
[9]
  bioavailability: 15%
[10]
  brain/plasma concentration ratio: 0.71

## Nc1cccc2c1C(=S)N(C1CCC(=S)NC1=O)C2=O (stereo not shown) [3,6’-DP, 3,6’-dithiopomalidomide]
[11]
  disappearance from plasma: disappears relatively rapidly
  oral bioavailability: low
[12]
  brain/plasma concentration ratio: 0.8
[13]
  IL-1β levels: significantly reduce
  IL-10 levels: increased substantially
  TNF-α levels: significantly reduce
